Source: patent US20240092728A1, “HYDROXY-SUBSTITUTED SPHINGOLIPIDS” (Evonik Operations GmbH, priority 2021, published 2024)

How the values were obtained:
[1] = system: normal human epidermal keratinocytes (NHEK); test: ROS production after UV irradiation (2,7-DCDHF-DA fluorescence); assay type: cell-based
Description: (§1) The extent to which the substances of the invention are able to exert a protective effect on normal human epidermal keratinocytes (NHEK) exposed to UV irradiation was examined.
(§2) For this, corresponding investigations were carried out of biomarkers for reactive oxygen species (ROS), quantified with 2,7-dichlorodihydrofluorescein diacetate, and DNA damage and repair, quantified by the Comet assay.
The intracellular formation of reactive […] species (ROS) is inter alia a factor that leads to damage of cellular DNA by UV radiation.
96-well plates were seeded with keratinocytes, which were cultured for 24 hours in culture medium and then for a further 24 hours in assay medium. The medium was then replaced by a test medium containing the test compounds or the references (100 μM vitamin E and 10 μM EGCG) or in which they were absent (irradiated control) and the cells were preincubated for 24 hours. After preincubation, the medium was removed and replaced by assay medium, the fluorescent probe (2,7-dichlorodihydrofluorescein diacetate (10 μM 2,7-DCDHF-DA in assay medium) was added and the cells were incubated at 37° C. for 30 minutes. The cells were then washed with PBS solution and irradiated with 100 mJ/cm^2 UVB+UVA (+0.7 J/cm^2) without compounds or references. The lamp used was a SOL500 solar simulator with H2 filter (Dr. Honle, AG). After irradiation, the cells were incubated for 30 minutes. An unirradiated control and the conditions without sample (background noise) were carried out in parallel.
All experimental conditions were carried out in triplicate.
The emitted intensity of fluorescence (ex=485 nm, em=538 nm) was measured using an EnVision® (Perkin Elmer) microplate reader.
The intensity of fluorescence of the metabolized sample (DCF) was proportional to the formation of ROS. ROS production was therefore expressed as the relative intensity of fluorescence.

[2] = system: normal human epidermal keratinocytes (NHEK); test: DNA damage and repair after UV irradiation (Comet assay); assay type: cell-based
Description: as §1, §2
6-well plates were seeded with the keratinocytes, which were incubated for 48 hours in culture medium, with the medium replenished after 24 hours. The medium was then replaced by culture medium containing the test compounds or the references (0.3 mM control) or in which they were absent (control) and the cells were incubated for 24 hours. After the preincubation, the culture medium was removed and assay medium again added and the cells were irradiated with 250 mJ/cm^2 UVB+UVA (+1.6 J/cm^2) in the absence of the compounds. The lamp used was a SOL500 solar simulator (Dr. Hönle, AG) fitted with an H2 filter. An unirradiated control condition was carried out in parallel. All experimental conditions were carried out in duplicate.
At the end of the irradiation, the culture supernatants were discarded and the cells were washed with phosphate-buffered saline (PBS) prior to analysis.
The cells were trypsinized and counted and the supernatant was removed after centrifugation. The cells were then washed with PBS solution and suspended in the same PBS solution so as to achieve a cell concentration of 1×10^5 cells/ml. The cell suspension was then mixed with molten (37° C.) 1% agarose gel of low melting point and pipetted onto the Comet microscope slides (duplicate analysis for each condition). For cell lysis, the microscope slides were immersed in a freshly prepared alkaline solution (200 mM NaOH containing 1 mM EDTA, pH>13) on an electrophoresis support. The gel electrophoresis was carried out at 21 volts for 30 minutes. The Comet microscope slides were washed twice with water, each time for 5 minutes, then washed with 70% ethanol for 5 minutes and air-dried at 37° C. for 15 minutes.
After the electrophoresis, each dried sample was stained with a DNA intercalating fluorescent dye (SYBR Green solution). The cells were then observed in epifluorescence using an automated IN Cell Analyzer™ 2200 microscope image analyser (GE Healthcare) (X10 objective lens). On excitation (ex 494 nm, em 524 nm), the DNA-bound SYBR® Green emits green light. […] If DNA damage has occurred, the alkali treatment causes the DNA to […], releasing fragments that migrate outside the cell when exposed to an electric field. The negatively charged DNA migrates to the anode, the extrusion length being proportional to the relaxation of the supercoiled structure, which is an indicator of damage. When alkaline electrophoresis conditions are employed, the distribution of the DNA between the tail and comet head can be used to determine the extent of the DNA damage. The images of the cells were analysed with OpenComet in conjunction with ImageJ software. In each replicate of the analysis, a minimum value of 500 events was analysed.

sun-stressed skin [3] = test: In-vivo study: skin colour measurement (L*, ITA°) on outside of forearm; parameters: species or system human; details: formulation applied twice daily to forearm; for ΔITA° W2 − W0 / ΔL* W2 − W0: after 2 weeks; for ΔITA° W4 − W0 / ΔL* W4 − W0: after 4 weeks; for ΔITA° W8 − W0 / ΔL* W8 − W0: after 8 weeks
Description: (§3) For the in-vivo study, 24 test subjects (male and female) with sun-stressed skin were recruited. In order to ensure sun-stressed skin, this study was carried out in the period from September to November. […] The test subjects received either two different test formulations, which they applied to one forearm each, or one test formulation. which was applied to one forearm with the second forearm remaining untreated (control). The test formulations were a vehicle and a formulation containing 0.1% of hydroxybutyroyl phytosphingosine (hydroxybutyroyl PS). The various test combinations were assigned to the test subjects randomly. The test subjects applied the test formulations for a period of 8 weeks twice daily to the inside and outside of in each case one forearm. The following measurements on the forearms were carried out before the start of application and after two, four and eight weeks: • 1. Colour measurement: A colorimeter probe (Skin-Colorimeter CL 400, Courage & Khazaka, Cologne) was used to measure the parameters L* and ITA° on the outside of the forearm. L* describes the black/white value of the skin, ITA° describes the skin tone. When skin becomes lighter, both values show an increase. • 2. Skin roughness: This parameter was determined by means of a special camera on the inside of the forearm (Visioscan VC 98, Courage & Khazaka). This camera records a digital black-and-white image of the skin. The grayscale distribution of the image can be used to determine the skin roughness. • 3. Density of the dermis: The density of the dermis was determined by ultrasound on the outside of the forearm (SkinLab Combo, Cortex Technologies, Denmark). For this, a special probe transmits an ultrasound signal to the skin and records the reflection. This reflection can be used to determine a value for the skin density. A reduced skin density is shown in particular by areas of skin that have been very strongly exposed to sunlight.

sun-stressed skin [4] = test: In-vivo study: skin roughness on inside of forearm (Visioscan VC 98); parameters: species or system human; unit not given here; details: formulation applied twice daily to forearm; for Decrease in roughness W2 − W0: after 2 weeks; for Decrease in roughness W4 − W0: after 4 weeks; for Decrease in roughness W8 − W0: after 8 weeks
Description: as §3

sun-stressed skin [5] = test: In-vivo study: density of the dermis by ultrasound on outside of forearm; parameters: species or system human; unit not given here; details: formulation applied twice daily to forearm; for Δ skin density W2 − W0: after 2 weeks; for Δ skin density W4 − W0: after 4 weeks; for Δ skin density W8 − W0: after 8 weeks
Description: as §3

[6] = 5 μM, 24 h preincubation, 100 mJ/cm^2 UVB+UVA
[7] = 10 μM, 24 h preincubation, 100 mJ/cm^2 UVB+UVA
[8] = 10 μM, 24 h preincubation, 250 mJ/cm^2 UVB+UVA

Row | Compound | protective effect against the formation of ROS [1, 6] [%] | protective effect against DNA damage after UV irradiation ([2]; 2 μM, 24 h preincubation, 250 mJ/cm^2 UVB+UVA) [%] | protective effect against the formation of ROS [1, 7] [%] | protective effect against DNA damage after UV irradiation [2, 8] [%] | ΔITA° W2 − W0 (sun-stressed skin [3]) | ΔL* W2 − W0 (sun-stressed skin [3]) | ΔITA° W4 − W0 (sun-stressed skin [3]) | ΔL* W4 − W0 (sun-stressed skin [3]) | ΔITA° W8 − W0 (sun-stressed skin [3]) | ΔL* W8 − W0 (sun-stressed skin [3]) | Decrease in roughness W2 − W0 (sun-stressed skin [4]) | Decrease in roughness W4 − W0 (sun-stressed skin [4]) | Decrease in roughness W8 − W0 (sun-stressed skin [4]) | Δ skin density W2 − W0 (sun-stressed skin [5]) | Δ skin density W4 − W0 (sun-stressed skin [5]) | Δ skin density W8 − W0 (sun-stressed skin [5]) | protective effect against DNA damage after UV irradiation ([2]; 5 μM, 24 h preincubation, 250 mJ/cm^2 UVB+UVA) [%] | protective effect against the formation of ROS ([1]; concentration not stated (FIG. 1; with increasing concentration)) | protective effect against DNA damage after UV irradiation ([2]; concentration not stated (FIG. 2)) | protective effect against DNA damage after UV irradiation ([2]; reference 0.3 mM, 250 mJ/cm^2 UVB+UVA)
1 | CCCCCCCCCCCCCCC(O)C(O)C(CO)NC(=O)C(O)C(C)(C)CO (centres unmarked) [Example 5, 2-hydroxy-3,3-dimethyl-hydroxybutyroyl phytosphingosine] | 38 | 39 |  |  |  |  |  |  |  |  |  |  |  |  |  |  |  |  |  | 
2 | Ceramide 3 [Cer 3] |  |  | 4 | 12 | 2.34 | 0.60 | 5.21 | 1.82 | 8.79 | 2.61 | 0.05 | −5.12 | −4.66 | 1.20 | 1.50 | 1.80 |  |  |  | 
3 | CCCCCCCCCCCCCCC[C@@H](O)[C@H](CO)NC(=O)C(O)C(C)(C)CO (some centres unmarked) [Ex 5b, 2-hydroxy-3,3-dimethyl-hydroxybutyroyl sphinganine] | 22 |  |  |  | 3.54 | 0.92 | 6.21 | 2.02 | 10.52 | 3.28 | −3.2 | −12.34 | −13.63 | 2.23 | 3.25 | 3.64 | 24 |  |  | 
4 | 6-Hydroxyhexanoyl phytosphingosine [Ex 1b] |  |  |  |  | 5.11 | 1.38 | 7.53 | 2.51 | 12.24 | 4.38 | −6.20 | −14.36 | −15.88 | 3.33 | 4.24 | 4.63 |  |  |  | 
5 | 3-Hydroxypropioyl phytosphingosine [Ex 1c] |  |  | 5 | 13 | 2.41 | 0.58 | 4.89 | 1.92 | 8.67 | 2.55 | −1.20 | −5.55 | −6.21 | .82 | 0.98 | 0.82 |  |  |  | 
6 | CCCCCCCCCCCCCC[C@@H](O)[C@@H](O)[C@@H](N)CO [phytosphingosine] |  |  |  |  |  |  |  |  |  |  |  |  |  |  |  |  |  | No significant protective effect | cannot be demonstrated | 
7 | O=S(=O)(O)c1cc(O)c(O)c(S(=O)(=O)O)c1 [tiron] |  |  |  |  |  |  |  |  |  |  |  |  |  |  |  |  |  |  |  | approximately 60%
